According to patent US6130232A, “Substituted piperidine derivatives as muscarinic M3 receptor antagonists” (Banyu Pharmaceutical Coaltd, priority 1995, dated 2000):

What was measured:
airway M3 receptor = target: T1, airway M3 receptor (Rattus norvegicus, UniProt P08483); assay: Antagonism to airway M3 receptor in isolated rat trachea; settings: agonist carbachol
T1 construct: the trachea was isolated; from tissue; host or cells: isolated rat trachea (male SD rats)
Experimental: Male SD strain rats (200-300 g) were sacrificed by exsanguination and the trachea was isolated. Ring segments (2 mm wide) were cut out from the trachea and cut transversely at the anterior cartilage part to make open ring preparations. Each preparation was suspended in a Magnus tube filled with 5 ml of Krebs-Henseleit solution (gassed with 95% O2 -5% CO2, at 37° C.) at an initial tension of 1.0 g and a resting tension of 0.6 g. The tension of the preparation was recorded isometrically. After being equilibrated for an hour, the preparation was made to contract twice by treatment with 10^-4 M carbachol, and the second contraction induced by carbachol was used as the reference contraction. After the preparation was washed with fresh solution to be recovered to the base line, a test compound was administered thereto (or no treatment was given). Ten minutes later, carbachol (10^-8 to 10^-3 M) was cumulatively administered in three-fold increased doses to obtain a dose-response curve. The dose-response curve was plotted by expressing responses as percentages based on the reference contraction of the preparation as 100%. The antagonistic potency (KB value) of the test compound was determined from the degree of shift of the dose-response curve obtained by treatment with the test compound.

bladder M3 receptor = target: T2, bladder M3 receptor (Rattus norvegicus, UniProt P08483); assay: Antagonism to bladder M3 receptor in isolated rat urinary bladder; settings: agonist carbachol
T2 construct: the urinary bladder was isolated; from tissue; host or cells: isolated rat urinary bladder (male SD rats)
T2 sequence (P08483 whole entry): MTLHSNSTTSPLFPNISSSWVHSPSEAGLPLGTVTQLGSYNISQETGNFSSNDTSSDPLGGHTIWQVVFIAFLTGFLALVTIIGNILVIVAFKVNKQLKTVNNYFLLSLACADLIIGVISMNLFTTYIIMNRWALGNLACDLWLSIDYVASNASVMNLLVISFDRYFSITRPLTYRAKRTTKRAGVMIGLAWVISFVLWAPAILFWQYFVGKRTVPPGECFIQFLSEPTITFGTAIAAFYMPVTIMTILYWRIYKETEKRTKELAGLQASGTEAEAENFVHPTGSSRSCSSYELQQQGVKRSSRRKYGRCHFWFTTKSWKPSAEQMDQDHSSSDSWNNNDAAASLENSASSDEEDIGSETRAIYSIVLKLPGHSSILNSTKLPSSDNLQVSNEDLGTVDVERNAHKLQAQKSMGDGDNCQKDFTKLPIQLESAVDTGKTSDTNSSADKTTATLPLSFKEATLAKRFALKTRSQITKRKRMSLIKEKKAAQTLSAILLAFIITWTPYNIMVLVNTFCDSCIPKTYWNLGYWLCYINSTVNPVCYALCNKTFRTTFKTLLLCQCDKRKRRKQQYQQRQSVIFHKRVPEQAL
Experimental: Male SD strain rats (200-300 g) were sacrificed by exsanguination and the urinary bladder was isolated. The bladders were cut into four longitudinal unfold sections, to form about 10 mm-long preparations. Each preparation was suspended in a Magnus tube filled with 5 ml of Krebs-Henseleit solution (gassed with 95% O2 -5% CO2 at 32° C.) at an initial tension of 0.5 g. The tension in the preparation was isometrically recorded. After an hour's equilibration, the preparation was contracted twice with 10^-4 M carbachol, the second contraction being recorded as the reference contraction. After the preparation was washed with fresh solution and recovered to the base line, a test compound was administered thereto (or no treatment was given). Ten minutes later, carbachol (10^-8 to 10^-3 M) was cumulatively administered to the preparation from at a low concentration to three-fold increased dose to obtain a dose-response curve. The dose-response curve was plotted by expressing responses as percentages based on the reference contraction of the preparation which was set to be 100%. The antagonistic potency (KB value) of the test compound was determined from the degree of shift in the dose-response curve resulted from the treatment with the test compound.

ileum M3 receptor = target: T3, ileum M3 receptor (Rattus norvegicus, UniProt P08483); assay: Antagonism to intestinal tract M3 receptor in isolated rat ileum; settings: agonist carbachol, read-out: KB ileus M3
T3 construct: the ileum was isolated and formed into 2 cm-long preparations; from tissue; host or cells: isolated rat ileum (male SD rats)
T3 sequence (P08483 whole entry): as above
Experimental: Male SD strain rats (200-300 g) were sacrificed by exsanguination, and the ileum was isolated and formed into 2 cm-long preparations. […] Tension in the preparation was isotonically recorded. After an hour's equilibration, the preparation was contracted twice with 10^-6 M carbachol, the second contraction being recorded as the reference contraction. After the preparation was washed with fresh solution and recovered to the base line, a test compounds was administered thereto (or no treatment was given). Ten minutes later, carbachol (10^-8 to 10^-3 M) was cumulatively administered to the preparation from at a low concentration to three-fold increased dose to obtain a dose-response curve. The dose-response curve was plotted by expressing responses as percentages based on the reference contraction of the preparation which was set to be 100%.

right atrium M2 receptor = target: T4, right atrium M2 receptor (Rattus norvegicus, UniProt P10980); assay: Antagonism to M2 receptor in isolated rat right atrium; settings: agonist carbachol
T4 construct: the right atrium was isolated; from tissue; host or cells: isolated rat right atrium (male SD rats)
T4 sequence (P10980 1-466): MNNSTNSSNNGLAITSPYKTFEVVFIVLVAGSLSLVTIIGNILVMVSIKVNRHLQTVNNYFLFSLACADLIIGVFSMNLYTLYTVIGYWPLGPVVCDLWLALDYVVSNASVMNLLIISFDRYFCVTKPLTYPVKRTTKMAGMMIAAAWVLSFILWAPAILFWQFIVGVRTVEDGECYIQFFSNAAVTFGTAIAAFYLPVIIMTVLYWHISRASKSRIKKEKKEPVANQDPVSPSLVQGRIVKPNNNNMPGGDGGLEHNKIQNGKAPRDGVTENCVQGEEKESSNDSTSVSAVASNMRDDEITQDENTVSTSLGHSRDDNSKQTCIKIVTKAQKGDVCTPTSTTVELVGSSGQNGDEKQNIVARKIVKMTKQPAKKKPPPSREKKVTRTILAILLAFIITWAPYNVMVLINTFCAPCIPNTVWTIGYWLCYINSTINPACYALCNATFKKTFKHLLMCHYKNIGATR
Experimental: This test was conducted following the method of Wess, et al. [British Journal of Pharmacology, Vol. 102, pp. 246-250]. Male SD strain rats (weighing 200-300 g) were sacrificed by exsanguination and the right atrium was isolated. […] The heart rate was recorded with a heart rate counter. After the preparation was equilibrated for 30 minutes, carbachol (10^-9 to 10^-6 M) was cumulatively administered from a low concentration to three-fold increased doses. Thus, a decrease in heart rate was measured to obtain a control dose-response curve. After the preparation was washed with fresh solution to recover the heart rate, a test compound was administered thereto. Ten minutes later, carbachol was cumulatively administered again. Carbachol-induced responses were expressed as percentages based on the heart rate before administration of carbachol as 100%.

muscarinic M3 receptor = target: T5, muscarinic M3 receptor (Rattus norvegicus, UniProt P08483); assay: Inhibition of M3 muscarinic receptor binding ([3H]-N-methylscopolamine, lacrimal gland membrane); settings: for Ki: rat lacrimal gland membrane, 0.02 nM [3H]-N-methylscopolamine; for M1 / M3 / M2 / M3: ratio of binding Ki
T5 construct: the membrane preparations of the lacrimal glands were used as the test specimens; from tissue; host or cells: rat lacrimal gland membranes (male SD rats)
T5 sequence (P08483 whole entry): as the sequence (P08483 whole entry) above
Experimental: (§1) Male SD strain rats weighing each 250 g-350 g [Japan Charles River K.K.] were sacrificed and their cerebral cortices, hearts and lacrimal glands were extirpated. The isolated organs were homogenized with Polytron (setting: 5) in an ice-cooled, 5-times diluted buffer solution (pH 7.4) containing 50 mM tris-hydrochloric acid, 5 mM magnesium chloride, 1 mM ethylenediamine-tetraacetic acid trisodium salt and 20% sucrose, followed by 15 minutes' centrifuge at 3,000×g and 4° C. After filtering the supernatant through gauze cloth, the filtrate was further subjected to an ultracentrifugation at 100,000×g at 4° C. for 45 minutes. The resultant precipitate was suspended in an ice-cooled buffer solution (pH 7.4, hereafter abbreviated as tris buffer) containing 50 mM tris-hydrochloric acid and 5 mM magnesium chloride. The suspension was subjected to an ultracentrifugation at 100,000×g at 4° C. for 45 minutes. The resultant precipitate was suspended in tris buffer at a concentration of 50 mg/ml and kept at -80° C. until the time of use. It was melted at the time of use in the binding inhibition tests.
(§2) Namely, a cerebral cortex membrane preparation, 1 nM [^3 H]-telenzepine ([^3 H]-Telenzepine, 85 Ci/mmol, New England Nuclear) and a test compound were incubated in 0.5 ml of tris buffer at room temperature (about 20-25° C.) for 120 minutes. Into the incubated system, 0.5 ml of ice-cooled tris buffer was added and suction-filtered with a glass filter (Packard Unifilter Plate GF/C). The filter was washed 4 times each with 1 ml of ice-cooled tris buffer. After drying the filter at 50° C. for an hour, a scintillator (Microscinti O: Packard Instrument Co., Inc.) was added and the radioactivity of the [^3 H]-telenzepine which was adsorbed onto the filter was measured with a microplate scintillation counter (Top Count: Packard Instrument Co., Inc.). Non-specific binding of [^3 H]-telenzepine to the receptors was determined under addition of 10 μM pirenzepine.
The test was conducted in the manner similar to above 2) M1 muscarinic receptor binding inhibition test, except that the membrane preparations of the lacrimal glands were used as the test specimens and 0.02 nM [^3 H]-N-methylscopolamine was used as the labelling ligand. Non-specific binding of [^3 H]-N-methylscopolamine to the receptor was determined under addition of 1 μM N-methylscopolamine.

[1] = test system: airway resistance increase; assay: Airway resistance enhancement in rats (acetylcholine-induced); format: in vivo, rat; settings: for ED50: iv, 5 min, rat, i.v., acetylcholine 50 μg/kg, read-out: airway constriction ID50; for activities in both airway constriction and bradycardia, in words: in vivo, Table 3, both tests
Experimental: Eight- to eleven-weeks-old Sprague-Dawley strain rats (300-400 g) were anesthetized with urethane (750 mg/kg, i.p.) and α-chloralose (37.5 mg/kg, i.p.). The bronchus of each rat was intubated, and the right jugular vein was cannulated for drug administration. […] After stable airway resistance increase induced by intravenous administration of acetylcholine (50 μg/kg) was observed, a test compound was administered intravenously. After 5 minutes, once again the airway resistance increase was induced with acetylcholine. The inhibition ratio of the tested compound on the airway resistance increase before administration of the test compound was calculated, and the dose of the test compound which inhibited the airway resistance obtained before the drug administration by 50% was recorded as ID50 value.

bradycardia = assay: Rat bradycardia (acetylcholine-induced); format: in vivo; settings: for ED50: iv, 5 min, rat, i.v., acetylcholine 10 μg/kg, read-out: bradycardia ID50; for selectivity of bronchodilation over bradycardiac response, in words: in vivo, Table 3
Experimental: Eight- to eleven-weeks-old Sprague-Dawley strain rats (300-400 g) were anesthetized by intraperitoneal injection of urethane (750 mg/kg) and α-chloralose (37.5 mg/kg), and their right carotid artery, left juglar vein and airway of the rat were cannulated. […] After stable bradycardia induced by intravenous administration of acetylcholine (10 μg/kg) was observed, a test compound was intravenously administered. Five minutes later, bradycardia was induced once again with acetylcholine administration. The inhibition ratio to the bradyeardia obtained before the administration of the test compound was calculated, and the dose of the test compound which inhibited the bradycardia obtained before the drug administration by 50% was recorded as ID50 value.

muscarinic M2 receptor = target: T6, muscarinic M2 receptor (Rattus norvegicus, UniProt P10980); assay: Inhibition of M2 muscarinic receptor binding ([3H]-N-methylscopolamine, heart membrane); settings: 0.2 nM [3H]-N-methylscopolamine
T6 construct: the membrane preparations of the heart were used as the test specimens; from tissue; host or cells: rat heart membranes (male SD rats)
T6 sequence (P10980 1-466): T4 sequence (P10980 1-466)
Experimental: Hereinafter action of compounds of the present invention to inhibit binding to muscarinic receptors and their in vitro and in vivo antagonism to muscarinic receptors are described, to concretely indicate utility of the present invention. As the labelling ligand for M1 muscarinic receptor, [^3 H]-telenzepine was used and as that for M2 and M3 muscarinic receptors, [^3 H]-N-methyl-scopolamine was used, and dissociation constants (Ki) were calculated from concentration of each of the tested compounds to inhibit binding of the labelling ligand by 50% (IC50).
as §1
These tests were performed according to a modification of the method of Hargreaves et al. (Br. J. Pharmacol. 107: pp. 494-501, 1992). […] After drying the filter at 50° C. for an hour, a scintillator (Microscinti O: Packard Instrument Co., Inc.) was added and the radioactivity of the [^3 H]-telenzepine which was adsorbed onto the filter was measured with a microplate scintillation counter (Top Count: Packard Instrument Co., Inc.). Non-specific binding of [^3 H]-telenzepine to the receptors was determined under addition of 10 μM pirenzepine. […]
The test was conducted in the manner similar to above 2) M1 muscarinic receptor binding inhibition test, except that the membrane preparations of the heart were used as the test specimens and 0.2 nM [^3 H]-N-methylscopolamine ([^3 H]-N-Methylscopolamine, 84 Ci/mmol, New England Nuclear) was used as the labelling ligand. Non-specific binding of [^3 H]-N-methylscopolamine to the receptors was determined under addition of 1 μM N-methylscopolamine.

muscarinic M1 receptor = target: T7, muscarinic M1 receptor (Rattus norvegicus, UniProt P08482); assay: Inhibition of M1 muscarinic receptor binding ([3H]-telenzepine, cerebral cortex membrane); settings: 1 nM [3H]-telenzepine
T7 construct: a cerebral cortex membrane preparation, 1 nM; from tissue; host or cells: rat cerebral cortex membranes (male SD rats)
T7 sequence (P08482 1-460): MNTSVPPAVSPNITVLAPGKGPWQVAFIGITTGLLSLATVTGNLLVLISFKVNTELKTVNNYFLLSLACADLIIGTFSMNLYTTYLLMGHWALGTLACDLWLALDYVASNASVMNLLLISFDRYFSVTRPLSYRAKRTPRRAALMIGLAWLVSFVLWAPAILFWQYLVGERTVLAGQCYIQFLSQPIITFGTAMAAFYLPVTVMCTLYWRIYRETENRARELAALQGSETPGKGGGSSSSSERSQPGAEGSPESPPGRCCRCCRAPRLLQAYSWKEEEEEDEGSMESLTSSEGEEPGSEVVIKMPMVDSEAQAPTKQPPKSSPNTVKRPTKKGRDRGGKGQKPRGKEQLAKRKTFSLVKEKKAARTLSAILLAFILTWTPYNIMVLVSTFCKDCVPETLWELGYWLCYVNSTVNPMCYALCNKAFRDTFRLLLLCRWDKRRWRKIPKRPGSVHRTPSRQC
Experimental: as §1, §2

T1 sequence (P08483 whole entry): as the sequence (P08483 whole entry) above

Row | Compound | Kb (airway M3 receptor) | Kb (bladder M3 receptor) | Kb (ileum M3 receptor) | Kb (right atrium M2 receptor) | Ki (muscarinic M3 receptor) | ED50 [1] | ED50 (bradycardia) | Ki (muscarinic M2 receptor) | M1 / M3 (muscarinic M3 receptor) | M2 / M3 (muscarinic M3 receptor) | Ki (muscarinic M1 receptor) | activities in both airway constriction and bradycardia, in words [1] | selectivity of bronchodilation over bradycardiac response, in words (bradycardia)
1 | Cc1cccc(CN2CCC(NC(=O)[C@](O)(c3ccccc3)C3CCCC3)CC2)n1.Cl.Cl [Example 1, (2R)-N-[1-(6-methyl-2-pyridylmethyl)piperidin-4-yl]-2-cyclopentyl-2-hydroxy-2-phenylacetamide dihydrochloride] | 4.4 nM | 3.6 nM | 70 nM | 1100 nM | 2.9 nM | 37 µg/kg | > 3000 µg/kg | 1100 nM | – | – | – | – | –
2 | COc1ccnc(CN2CCC(NC(=O)C(O)(c3ccccc3)C3CCCC3)CC2)c1 (stereo not shown) [Example 9, N-[1-(4-methoxy-2-pyridylmethyl)piperidin-4-yl]-2-cyclopentyl-2-hydroxy-2-phenylacetamide] | – | – | – | – | 9.4 nM | – | – | 1300 nM | 3.1 | 140 | 29 nM | – | –
3 | O=C(NC1CCN(Cc2cccc(Cl)n2)CC1)C(O)(c1ccccc1)C1CCCC1 (stereo not shown) [Example 10, N-[1-(6-chloro-2-pyridylmethyl)piperidin-4-yl]-2-cyclopentyl-2-hydroxy-2-phenylacetamide] | – | – | – | – | 7.6 nM | – | – | 1300 nM | 2.1 | 170 | 16 nM | – | –
4 | O=C(NC1CCN(Cc2cc(Cl)ccn2)CC1)C(O)(c1ccccc1)C1CCCC1 (stereo not shown) [Example 11, N-[1-(4-chloro-2-pyridylmethyl)piperidin-4-yl]-2-cylopentyl-2-hydroxy-2-phenylacetamide] | – | – | – | – | 8.8 nM | – | – | 730 nM | 1.3 | 83 | 11 nM | – | –
5 | CN1[C@@H]2CC[C@H]1C[C@@H](OC(=O)C(CO)c1ccccc1)C2 (stereo partly shown) [atropine] | – | – | – | – | – | 4.3 µg/kg | 3.7 µg/kg | – | – | – | – | potent activities in both cases | non-selective
6 | CC(C)[N+]1(C)[C@@H]2CC[C@H]1C[C@@H](OC(=O)C(CO)c1ccccc1)C2 (stereo partly shown) [ipratropium] | – | – | – | – | – | 1.5 µg/kg | 1.8 µg/kg | – | – | – | – | potent activities in both cases | non-selective
